Experimental data from ChEMBL document CHEMBL4507324 (2021).

Legend:
Conditions in all cases: Compound concentration 100.0 nM
[1] = target: Bone morphogenetic protein receptor type-1B (Homo sapiens) (UniProt O00238)
[2] = target: Leukocyte tyrosine kinase receptor (Homo sapiens) (UniProt P29376)
[3] = target: Serine/threonine-protein kinase Nek6 (Homo sapiens) (UniProt Q9HC98)
[4] = target: Homeodomain-interacting protein kinase 3 (Homo sapiens) (UniProt Q9H422)
[5] = target: Serine/threonine-protein kinase 32B (Homo sapiens) (UniProt Q9NY57)
[6] = target: Myosin light chain kinase, smooth muscle (Homo sapiens) (UniProt Q15746)
[7] = target: Dual specificity mitogen-activated protein kinase kinase 1 (Homo sapiens) (UniProt Q02750)
[8] = target: Ribosomal protein S6 kinase alpha-1 (Homo sapiens) (UniProt Q15418)
[9] = target: Misshapen-like kinase 1 (Homo sapiens) (UniProt Q8N4C8)
[10] = target: Mitogen-activated protein kinase 12 (Homo sapiens) (UniProt P53778)
[11] = target: Inhibitor of nuclear factor kappa-B kinase subunit epsilon (Homo sapiens) (UniProt Q14164)
[12] = target: Cyclin-dependent kinase 4 (Homo sapiens) (UniProt P11802)
[13] = target: Mitogen-activated protein kinase kinase kinase 14 (Homo sapiens) (UniProt Q99558)
[14] = target: Serine/threonine-protein kinase ULK3 (Homo sapiens) (UniProt Q6PHR2)
Chain of Serine/threonine-protein kinase ULK3 (Homo sapiens) (Q6PHR2 whole entry, canonical isoform): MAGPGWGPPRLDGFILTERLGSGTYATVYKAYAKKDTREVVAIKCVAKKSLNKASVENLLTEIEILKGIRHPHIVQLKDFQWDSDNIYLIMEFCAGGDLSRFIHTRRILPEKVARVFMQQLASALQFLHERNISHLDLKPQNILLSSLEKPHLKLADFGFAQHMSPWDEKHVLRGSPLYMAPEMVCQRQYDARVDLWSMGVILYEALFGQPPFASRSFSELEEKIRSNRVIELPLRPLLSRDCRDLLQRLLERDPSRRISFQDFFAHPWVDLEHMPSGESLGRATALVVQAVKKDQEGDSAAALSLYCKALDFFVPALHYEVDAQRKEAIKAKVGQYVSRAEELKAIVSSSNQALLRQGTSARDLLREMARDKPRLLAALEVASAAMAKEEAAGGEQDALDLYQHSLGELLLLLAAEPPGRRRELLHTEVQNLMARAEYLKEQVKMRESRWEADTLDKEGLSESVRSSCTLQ

[15] = target: Casein kinase I isoform gamma-3 (Homo sapiens) (UniProt Q9Y6M4)
[16] = tested on: Mast/stem cell growth factor receptor Kit (Homo sapiens), P10721 [V559D]
[17] = target: Phosphatidylinositol 4-phosphate 3-kinase C2 domain-containing subunit beta (Homo sapiens) (UniProt O00750)
[18] = target: Non-receptor tyrosine-protein kinase TNK1 (Homo sapiens) (UniProt Q13470)
[19] = tested on: Phosphatidylinositol 4,5-bisphosphate 3-kinase catalytic subunit alpha isoform (Homo sapiens), P42336 [E542K]
[20] = target: Tyrosine-protein kinase receptor UFO (Homo sapiens) (UniProt P30530)
Chain of Tyrosine-protein kinase receptor UFO (Homo sapiens) (P30530 whole entry): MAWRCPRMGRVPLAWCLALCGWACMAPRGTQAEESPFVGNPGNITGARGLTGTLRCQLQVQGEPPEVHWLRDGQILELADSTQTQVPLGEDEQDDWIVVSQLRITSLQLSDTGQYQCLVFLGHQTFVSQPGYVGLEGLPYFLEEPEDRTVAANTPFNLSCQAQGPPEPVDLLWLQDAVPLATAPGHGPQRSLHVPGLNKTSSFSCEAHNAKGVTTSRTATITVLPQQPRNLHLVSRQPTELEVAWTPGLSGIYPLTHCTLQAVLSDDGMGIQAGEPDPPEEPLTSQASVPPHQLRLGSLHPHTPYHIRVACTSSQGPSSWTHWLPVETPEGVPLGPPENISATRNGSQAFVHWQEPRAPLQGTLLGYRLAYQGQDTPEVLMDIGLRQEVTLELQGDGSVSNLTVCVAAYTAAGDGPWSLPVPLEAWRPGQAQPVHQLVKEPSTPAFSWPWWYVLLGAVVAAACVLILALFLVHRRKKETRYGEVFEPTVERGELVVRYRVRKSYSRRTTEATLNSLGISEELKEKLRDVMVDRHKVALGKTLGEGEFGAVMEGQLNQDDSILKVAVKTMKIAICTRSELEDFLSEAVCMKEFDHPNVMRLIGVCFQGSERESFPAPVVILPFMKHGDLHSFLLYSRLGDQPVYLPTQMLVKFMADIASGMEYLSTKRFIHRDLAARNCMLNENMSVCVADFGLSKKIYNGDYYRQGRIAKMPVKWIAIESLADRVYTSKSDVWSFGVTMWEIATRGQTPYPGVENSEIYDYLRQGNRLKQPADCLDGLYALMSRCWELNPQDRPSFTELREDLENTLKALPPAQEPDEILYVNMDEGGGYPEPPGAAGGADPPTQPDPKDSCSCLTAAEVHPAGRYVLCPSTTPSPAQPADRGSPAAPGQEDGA

[21] = target: Mitogen-activated protein kinase kinase kinase kinase 5 (Homo sapiens) (UniProt Q9Y4K4)
[22] = target: Myosin light chain kinase 2, skeletal/cardiac muscle (Homo sapiens) (UniProt Q9H1R3)
Chain of Myosin light chain kinase 2, skeletal/cardiac muscle (Homo sapiens) (Q9H1R3 whole entry): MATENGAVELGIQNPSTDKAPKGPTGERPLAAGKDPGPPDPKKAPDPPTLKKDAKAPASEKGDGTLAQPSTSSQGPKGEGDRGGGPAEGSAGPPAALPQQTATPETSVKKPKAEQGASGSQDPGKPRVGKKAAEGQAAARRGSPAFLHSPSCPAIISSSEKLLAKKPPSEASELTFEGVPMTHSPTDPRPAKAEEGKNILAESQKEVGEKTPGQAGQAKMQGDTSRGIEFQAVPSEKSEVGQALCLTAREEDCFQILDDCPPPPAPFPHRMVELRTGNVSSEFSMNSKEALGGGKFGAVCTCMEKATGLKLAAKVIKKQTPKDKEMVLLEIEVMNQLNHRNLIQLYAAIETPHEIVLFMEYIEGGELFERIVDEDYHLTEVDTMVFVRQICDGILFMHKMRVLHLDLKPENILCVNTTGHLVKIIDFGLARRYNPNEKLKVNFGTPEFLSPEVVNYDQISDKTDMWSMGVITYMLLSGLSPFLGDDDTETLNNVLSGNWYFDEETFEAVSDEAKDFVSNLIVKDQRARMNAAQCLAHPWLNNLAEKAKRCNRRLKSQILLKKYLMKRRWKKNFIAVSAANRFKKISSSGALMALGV

[23] = target: Calcium/calmodulin-dependent protein kinase type 1D (Homo sapiens) (UniProt Q8IU85)
[24] = target: Fibroblast growth factor receptor 2 (Homo sapiens) (UniProt P21802)
[25] = target: Tyrosine-protein kinase Fer (Homo sapiens) (UniProt P16591)
[26] = target: Mitogen-activated protein kinase kinase kinase 6 (Homo sapiens) (UniProt O95382)
[27] = target: Serine/threonine-protein kinase N1 (Homo sapiens) (UniProt Q16512)
[28] = target: Interleukin-1 receptor-associated kinase 4 (Homo sapiens) (UniProt Q9NWZ3)
[29] = target: Cyclin-dependent kinase-like 3 (Homo sapiens) (UniProt Q8IVW4)
[30] = target: Serine/threonine-protein kinase DCLK3 (Homo sapiens) (UniProt Q9C098)
[31] = target: Phosphatidylinositol 4-kinase beta (Homo sapiens) (UniProt Q9UBF8)
[32] = target: Casein kinase I isoform gamma-1 (Homo sapiens) (UniProt Q9HCP0)
[33] = target: Ephrin type-A receptor 7 (Homo sapiens) (UniProt Q15375)
[34] = target: Serine/threonine-protein kinase pim-1 (Homo sapiens) (UniProt P11309)
[35] = target: Serine/threonine-protein kinase BRSK2 (Homo sapiens) (UniProt Q8IWQ3)
Chain of Serine/threonine-protein kinase BRSK2 (Homo sapiens) (Q8IWQ3 whole entry): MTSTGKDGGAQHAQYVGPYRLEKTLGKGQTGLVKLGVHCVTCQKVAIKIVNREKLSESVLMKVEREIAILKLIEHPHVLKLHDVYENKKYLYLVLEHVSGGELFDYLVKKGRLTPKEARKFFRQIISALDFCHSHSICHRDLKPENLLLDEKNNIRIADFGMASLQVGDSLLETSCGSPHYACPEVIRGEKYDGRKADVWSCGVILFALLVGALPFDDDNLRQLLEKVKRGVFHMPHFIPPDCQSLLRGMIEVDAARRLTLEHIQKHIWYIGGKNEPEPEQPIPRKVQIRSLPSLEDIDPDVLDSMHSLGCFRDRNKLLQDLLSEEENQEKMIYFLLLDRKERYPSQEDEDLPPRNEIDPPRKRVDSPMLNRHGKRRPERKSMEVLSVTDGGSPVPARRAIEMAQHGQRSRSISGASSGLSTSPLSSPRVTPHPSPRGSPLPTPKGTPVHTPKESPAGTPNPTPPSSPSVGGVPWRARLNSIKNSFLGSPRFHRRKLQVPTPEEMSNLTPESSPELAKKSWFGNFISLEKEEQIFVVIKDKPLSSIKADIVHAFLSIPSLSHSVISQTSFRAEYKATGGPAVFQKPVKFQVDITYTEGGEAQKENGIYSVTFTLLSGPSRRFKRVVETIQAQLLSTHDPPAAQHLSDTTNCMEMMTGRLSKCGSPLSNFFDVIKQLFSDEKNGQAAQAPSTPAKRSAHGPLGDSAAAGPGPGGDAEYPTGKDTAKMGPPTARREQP

[36] = target: Ephrin type-A receptor 6 (Homo sapiens) (UniProt Q9UF33)
[37] = tested on: Receptor-type tyrosine-protein kinase FLT3 (Homo sapiens), P36888 [UNDEFINED MUTATION]
Chain of Receptor-type tyrosine-protein kinase FLT3 (Homo sapiens), P36888 [UNDEFINED MUTATION] (P36888 whole entry, looked up, change not shown): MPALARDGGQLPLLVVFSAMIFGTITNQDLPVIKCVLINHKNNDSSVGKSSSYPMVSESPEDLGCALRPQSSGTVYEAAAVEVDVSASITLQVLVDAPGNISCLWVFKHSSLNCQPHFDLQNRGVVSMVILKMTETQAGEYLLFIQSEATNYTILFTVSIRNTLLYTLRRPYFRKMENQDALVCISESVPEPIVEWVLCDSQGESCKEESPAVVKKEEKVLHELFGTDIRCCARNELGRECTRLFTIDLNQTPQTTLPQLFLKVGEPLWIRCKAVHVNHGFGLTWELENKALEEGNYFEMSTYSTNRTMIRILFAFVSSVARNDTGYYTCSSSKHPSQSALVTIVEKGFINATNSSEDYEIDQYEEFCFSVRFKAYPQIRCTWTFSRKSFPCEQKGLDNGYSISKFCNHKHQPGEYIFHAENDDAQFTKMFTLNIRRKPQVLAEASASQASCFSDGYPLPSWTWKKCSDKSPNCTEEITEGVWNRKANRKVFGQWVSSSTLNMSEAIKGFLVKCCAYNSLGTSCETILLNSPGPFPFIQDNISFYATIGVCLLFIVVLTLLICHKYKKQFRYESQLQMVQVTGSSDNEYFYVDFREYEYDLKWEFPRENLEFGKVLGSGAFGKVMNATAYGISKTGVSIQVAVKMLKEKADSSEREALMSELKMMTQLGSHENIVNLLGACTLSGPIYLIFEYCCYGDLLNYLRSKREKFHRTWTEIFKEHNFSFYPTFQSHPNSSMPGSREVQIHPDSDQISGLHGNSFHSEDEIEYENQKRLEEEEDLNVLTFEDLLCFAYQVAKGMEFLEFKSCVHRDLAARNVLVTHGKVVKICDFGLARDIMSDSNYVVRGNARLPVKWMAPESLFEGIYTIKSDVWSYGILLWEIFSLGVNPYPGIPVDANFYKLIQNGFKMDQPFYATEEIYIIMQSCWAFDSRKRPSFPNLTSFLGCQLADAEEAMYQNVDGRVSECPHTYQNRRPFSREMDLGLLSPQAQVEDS

[38] = target: Mitogen-activated protein kinase kinase kinase 20 (Homo sapiens) (UniProt Q9NYL2)
[39] = target: Serine/threonine-protein kinase 32C (Homo sapiens) (UniProt Q86UX6)
[40] = tested on: Phosphatidylinositol 4,5-bisphosphate 3-kinase catalytic subunit alpha isoform (Homo sapiens), P42336 [H1047L]
[41] = tested on: Mast/stem cell growth factor receptor Kit (Homo sapiens), P10721 [V559D,T670I]
[42] = target: Receptor-type tyrosine-protein kinase FLT3 (Homo sapiens) (UniProt P36888)
Chain of Receptor-type tyrosine-protein kinase FLT3 (Homo sapiens) (P36888 whole entry): as the sequence (P36888 whole entry, looked up, change not shown) above

[43] = tested on: Mast/stem cell growth factor receptor Kit (Homo sapiens), P10721 [D816H]
[44] = target: Mitogen-activated protein kinase kinase kinase kinase 1 (Homo sapiens) (UniProt Q92918)
[45] = target: Protein kinase C delta type (Homo sapiens) (UniProt Q05655)

Chain of Homeodomain-interacting protein kinase 3 (Homo sapiens) (Q9H422 whole entry, looked up): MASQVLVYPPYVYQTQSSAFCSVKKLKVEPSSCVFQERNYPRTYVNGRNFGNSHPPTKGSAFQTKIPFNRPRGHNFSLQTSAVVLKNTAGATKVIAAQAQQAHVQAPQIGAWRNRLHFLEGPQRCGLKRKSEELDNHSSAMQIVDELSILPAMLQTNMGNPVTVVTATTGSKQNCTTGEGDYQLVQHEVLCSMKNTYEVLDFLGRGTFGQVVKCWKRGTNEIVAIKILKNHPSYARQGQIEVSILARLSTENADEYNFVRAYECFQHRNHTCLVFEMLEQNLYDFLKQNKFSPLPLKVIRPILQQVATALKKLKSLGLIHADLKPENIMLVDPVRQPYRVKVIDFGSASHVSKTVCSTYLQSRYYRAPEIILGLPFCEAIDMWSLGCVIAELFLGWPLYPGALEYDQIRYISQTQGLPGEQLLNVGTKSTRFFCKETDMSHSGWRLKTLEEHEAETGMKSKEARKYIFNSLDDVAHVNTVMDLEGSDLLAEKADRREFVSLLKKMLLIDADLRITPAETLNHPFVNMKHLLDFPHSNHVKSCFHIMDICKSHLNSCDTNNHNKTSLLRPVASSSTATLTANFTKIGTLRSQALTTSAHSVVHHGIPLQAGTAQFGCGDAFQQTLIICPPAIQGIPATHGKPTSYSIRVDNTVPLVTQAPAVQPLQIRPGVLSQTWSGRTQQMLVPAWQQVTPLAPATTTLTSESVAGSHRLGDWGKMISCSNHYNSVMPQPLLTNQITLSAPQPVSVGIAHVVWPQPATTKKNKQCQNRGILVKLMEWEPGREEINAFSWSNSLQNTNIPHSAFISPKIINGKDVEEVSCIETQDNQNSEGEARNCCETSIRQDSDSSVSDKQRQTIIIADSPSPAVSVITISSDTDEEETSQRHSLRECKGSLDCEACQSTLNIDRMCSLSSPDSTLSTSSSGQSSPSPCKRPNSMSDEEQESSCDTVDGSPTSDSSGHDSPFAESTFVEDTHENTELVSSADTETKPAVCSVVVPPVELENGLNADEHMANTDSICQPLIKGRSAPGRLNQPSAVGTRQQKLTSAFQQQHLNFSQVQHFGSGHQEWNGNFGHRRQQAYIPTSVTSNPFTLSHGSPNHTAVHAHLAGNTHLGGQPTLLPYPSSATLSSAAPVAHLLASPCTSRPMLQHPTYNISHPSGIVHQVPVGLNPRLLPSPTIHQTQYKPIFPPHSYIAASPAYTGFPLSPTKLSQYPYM

CS(=O)(=O)N1CCCC(NC(=O)[C@H](CCC2CCCCC2)NC(=O)c2ccc(CNc3ncnc4c3nnn4-c3ccccc3)cc2)C1 (stereo not given in full) [SR-301]
residual activity [1]: 91%
residual activity [2]: 100%
residual activity [3]: 86%
residual activity [4]: 100%
residual activity [5]: 65%
residual activity [6]: 100%
residual activity [7]: 100%
residual activity [8]: 100%
residual activity [9]: 85%
residual activity [10]: 100%
residual activity [11]: 73%
residual activity [12]: 100%
residual activity [13]: 83%
residual activity [14]: 99%
residual activity [15]: 100%
residual activity [16]: 93%
residual activity [17]: 95%
residual activity [18]: 96%
residual activity [19]: 64%
residual activity [20]: 79%
residual activity [21]: 76%
residual activity [22]: 90%
residual activity [23]: 97%
residual activity [24]: 97%
residual activity [25]: 86%
residual activity [26]: 100%
residual activity [27]: 98%
residual activity [28]: 100%
residual activity [29]: 96%
residual activity [30]: 87%
residual activity [31]: 100%
residual activity [32]: 100%
residual activity [33]: 98%
residual activity [34]: 95%
residual activity [35]: 79%
residual activity [36]: 100%
residual activity [37]: 100%
residual activity [38]: 89%
residual activity [39]: 100%
residual activity [40]: 76%
residual activity [41]: 100%
residual activity [42]: 97%
residual activity [43]: 68%
residual activity [44]: 100%
residual activity [45]: 80%

CS(=O)(=O)N1CCCC(NC(=O)[C@H](CCC2CCCCC2)NC(=O)c2ccc(CNC(=O)c3cnc4ccccn34)cc2)C1 (stereo not given in full) [SR-302]
residual activity [1]: 100%
residual activity [2]: 100%
residual activity [3]: 100%
residual activity [4]: 100%
residual activity [5]: 93%
residual activity [6]: 100%
residual activity [7]: 100%
residual activity [8]: 74%
residual activity [9]: 85%
residual activity [10]: 100%
residual activity [11]: 100%
residual activity [12]: 100%
residual activity [13]: 100%
residual activity [14]: 100%
residual activity [15]: 100%
residual activity [16]: 49%
residual activity [17]: 100%
residual activity [18]: 100%
residual activity [19]: 78%
residual activity [20]: 96%
residual activity [21]: 100%
residual activity [22]: 90%
residual activity [23]: 88%
residual activity [24]: 100%
residual activity [25]: 99%
residual activity [26]: 100%
residual activity [27]: 72%
residual activity [28]: 100%
residual activity [29]: 100%
residual activity [30]: 97%
residual activity [31]: 98%
residual activity [32]: 100%
residual activity [33]: 96%
residual activity [34]: 89%
residual activity [35]: 100%
residual activity [36]: 100%
residual activity [37]: 100%
residual activity [38]: 79%
residual activity [39]: 85%
residual activity [40]: 100%
residual activity [41]: 77%
residual activity [42]: 93%
residual activity [43]: 44%
residual activity [44]: 95%
residual activity [45]: 100%
